We go through 15 compounds from patent EP4603105A1, “PHARMACEUTICAL COMPOSITION CONTAINING CYCLIC COMPOUND HAVING SELECTIVE KRAS INHIBITORY EFFECT AGAINST HRAS AND NRAS” (CHUGAI SEIYAKU KABUSHIKI KAISHA, priority 2022, dated 2024).

As usually defined, the pIC50 is the negative decadic logarithm of the IC50, by convention in mol/L. A lower pIC50 goes with a large IC50.

Assay [1] has as its system human lung cancer strain NCI-H441. It counts as cell-based. In short, it runs like this: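 Proliferation was scored by […] measured after the reagent was added to cultures kept at 37°C in 5% carbon dioxide.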
The next assay addresses HRAS wild-type protein (Homo sapiens, UniProt P01112). The experiment in a line: Binding to HRAS by surface plasmon resonance (SPR), KD and KD ratio to KRAS. To be noted: ratio of the KD value with respect to HRAS wild-type protein to the KD value with respect to KRAS. In a few lines:
(§1)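 Single-cycle kinetics on GDP-loaded biotin-Avi RAS captured to ~100–300 RU; 75 s ascending injections, 100 µL/min, 30°C. HBS pH 7.4 + 10 mM MgCl2/10 µM GDP/4% DMSO. 1:1 fit, KD.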
For orientation: Surface plasmon resonance follows binding to a sensor surface in real time, without labels.

Assay [2] has as its target GDP-bound NRAS wild-type protein (Homo sapiens, UniProt P01111). The experiment in a line: Binding to NRAS by surface plasmon resonance (SPR), KD and KD ratio to KRAS. To be noted: ratio of the KD value with respect to GDP-bound NRAS wild-type protein to the KD value with respect to KRAS. In short, it runs like this:
as §1

SMILES strings stand for the structures. pIC50: −log10 of the molar value.

Sequence of GDP-bound NRAS wild-type protein (P01111 whole entry): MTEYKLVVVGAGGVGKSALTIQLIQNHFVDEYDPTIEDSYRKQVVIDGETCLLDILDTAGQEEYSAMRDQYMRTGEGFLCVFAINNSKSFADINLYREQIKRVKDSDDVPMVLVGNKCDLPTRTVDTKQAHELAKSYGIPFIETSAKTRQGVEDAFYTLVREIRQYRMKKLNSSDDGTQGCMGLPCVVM
Sequence of HRAS wild-type protein (P01112 whole entry): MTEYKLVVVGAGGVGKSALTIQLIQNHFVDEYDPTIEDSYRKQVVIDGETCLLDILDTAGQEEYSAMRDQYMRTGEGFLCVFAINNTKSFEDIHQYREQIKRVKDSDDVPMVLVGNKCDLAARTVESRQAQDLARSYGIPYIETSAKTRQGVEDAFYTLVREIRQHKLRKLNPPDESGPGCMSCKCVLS

As to `CCO[C@@H]1C[C@H]2C(=O)NC3(CCC3)C(=O)N(C)[C@@H](C3CCCC3)C(=O)N(C)[C@H](C(=O)N3CCOCC3)CC(=O)N(C)[C@@H](CC(C)C)C(=O)N[C@@H]([C@@H](C)CC)C(=O)N(C)CC(=O)N(C)[C@H]3CCCCN(C3=O)[C@@H](Cc3ccc(C(F)(F)F)cc3)C(=O)N(C)CC(=O)N[C@@H](CCc3cc(F)c(C(F)(F)F)c(F)c3)C(=O)N2C1` [PP0578], in assay [1], the pIC50 was 8.66. Moreover, at HRAS wild-type protein, the “HRAS /KRAS” value was “B (a compound having 3 or more and less than 10 is denoted as B)”. In addition, the “NRAS /KRAS” value in assay [2] is “B (a compound having 3 or more and less than 10 is denoted as B)”.
In turn, `CCO[C@@H]1C[C@H]2C(=O)NC3(CCCC3)C(=O)N(C)[C@@H](C3CCCC3)C(=O)N(C)[C@H](C(=O)N(C)C)CC(=O)N(C)[C@@H](CC(C)C)C(=O)N[C@@H]([C@@H](C)CC)C(=O)N(C)CC(=O)N(C)[C@H]3CCCCN(C3=O)[C@@H](Cc3ccc(C(F)(F)F)cc3)C(=O)N(C)CC(=O)N[C@@H](CCc3cc(F)c(C(F)(F)F)c(F)c3)C(=O)N2C1` [PP0579] gave a pIC50 in assay [1] of 8.62. Moreover, the “HRAS /KRAS” value on HRAS wild-type protein is “B (a compound having 3 or more and less than 10 is denoted as B)”. Besides, in assay [2], the “NRAS /KRAS” value is “C (A compound having a KD ratio of 0.1 or more and less than 3 is denoted as C)”.
As to `CCO[C@@H]1C[C@H]2C(=O)NC3(CCC3)C(=O)N(C)[C@@H](C3CCCC3)C(=O)N(C)[C@H](C(=O)N(C)C)CC(=O)N(C)[C@@H](CC(C)C)C(=O)N[C@@H]([C@@H](C)CC)C(=O)N(C)CC(=O)N(C)[C@H]3CCCCN(C3=O)[C@@H](Cc3ccc(C(F)(F)F)cc3)C(=O)N(C)CC(=O)N[C@@H](CCc3cc(F)c(C(F)(F)F)c(F)c3)C(=O)N2C1` [PP0580], the pIC50 in assay [1] is 8.74. On HRAS wild-type protein, the “HRAS /KRAS” value was “C (A compound having a KD ratio of 0.1 or more and less than 3 is denoted as C)”. Further, the “NRAS /KRAS” value in assay [2] was “C (A compound having a KD ratio of 0.1 or more and less than 3 is denoted as C)”.
With `CC[C@H](C)[C@@H]1NC(=O)[C@H](C)N(C)C(=O)C[C@@H](C(=O)N(C)C)N(C)C(=O)[C@H](C2CCCC2)N(C)C(=O)C2(CCC2)NC(=O)[C@@H]2CCCN2C(=O)[C@H](CCc2cc(F)c(C(F)(F)F)c(F)c2)NC(=O)CN(C)C(=O)[C@H](Cc2ccc(C(F)(F)F)cc2)N2CCCC[C@@H](C2=O)N(C)C(=O)CN(C)C1=O` [PP0581], in assay [1], the pIC50 was 8.10. The “HRAS /KRAS” value on HRAS wild-type protein was “B (a compound having 3 or more and less than 10 is denoted as B)”. Also, the “NRAS /KRAS” value in assay [2] is “C (A compound having a KD ratio of 0.1 or more and less than 3 is denoted as C)”.
`CC[C@H](C)[C@@H]1NC(=O)[C@H](C)N(C)C(=O)C[C@@H](C(=O)N2CCOCC2)N(C)C(=O)[C@H](C2CCCC2)N(C)C(=O)C2(CCC2)NC(=O)[C@@H]2CC(F)(F)CN2C(=O)[C@H](CCc2cc(F)c(C(F)(F)F)c(F)c2)NC(=O)CN(C)C(=O)[C@H](Cc2ccc(C(F)(F)F)cc2)N2CCCC[C@@H](C2=O)N(C)C(=O)CN(C)C1=O` [PP0582]: the negative logarithm of the IC50 (pIC50) in assay [1] is 8.02. The “HRAS /KRAS” value at HRAS wild-type protein was “B (a compound having 3 or more and less than 10 is denoted as B)”. The “NRAS /KRAS” value in assay [2] is “C (A compound having a KD ratio of 0.1 or more and less than 3 is denoted as C)”.
For `CC[C@H](C)[C@@H]1NC(=O)[C@H](C)N(C)C(=O)C[C@@H](C(=O)N(C)C)N(C)C(=O)[C@H](C2CCCC2)N(C)C(=O)C2(CCCC2)NC(=O)[C@@H]2CC(F)(F)CN2C(=O)[C@H](CCc2cc(F)c(C(F)(F)F)c(F)c2)NC(=O)CN(C)C(=O)[C@H](Cc2ccc(C(F)(F)F)cc2)N2CCCC[C@@H](C2=O)N(C)C(=O)CN(C)C1=O` [PP0583], the negative-log IC50 (pIC50) in assay [1] was 7.99. Besides, at HRAS wild-type protein, the “HRAS /KRAS” value was “C (A compound having a KD ratio of 0.1 or more and less than 3 is denoted as C)”. The “NRAS /KRAS” value in assay [2] was “C (A compound having a KD ratio of 0.1 or more and less than 3 is denoted as C)”.
The compound `CC[C@H](C)[C@@H]1NC(=O)[C@H](C)N(C)C(=O)C[C@@H](C(=O)N(C)C)N(C)C(=O)[C@H](C2CCCC2)N(C)C(=O)C2(CCC2)NC(=O)[C@@H]2CC(F)(F)CN2C(=O)[C@H](CCc2cc(F)c(C(F)(F)F)c(F)c2)NC(=O)CN(C)C(=O)[C@H](Cc2ccc(C(F)(F)F)cc2)N2CCCC[C@@H](C2=O)N(C)C(=O)CN(C)C1=O` [PP0584] gave a pIC50 in assay [1] of 8.15. The “HRAS /KRAS” value on HRAS wild-type protein is “C (A compound having a KD ratio of 0.1 or more and less than 3 is denoted as C)”. For the same compound, the “NRAS /KRAS” value in assay [2] was “C (A compound having a KD ratio of 0.1 or more and less than 3 is denoted as C)”.
Consider `CCO[C@@H]1C[C@H]2C(=O)NC3(CCC3)C(=O)N(C)[C@@H](C3CCCC3)C(=O)N(C)[C@H](C(=O)N3CCOCC3)CC(=O)N(C)[C@@H](C)C(=O)N[C@@H]([C@@H](C)CC)C(=O)N(C)CC(=O)N(C)[C@H]3CCCCN(C3=O)[C@@H](Cc3ccc(C(F)(F)F)cc3)C(=O)N(C)CC(=O)N[C@@H](CCc3cc(F)c(C(F)(F)F)c(F)c3)C(=O)N2C1` [PP0585], for which, in assay [1], the pIC50 was 8.21. For the same compound, the “HRAS /KRAS” value at HRAS wild-type protein was “B (a compound having 3 or more and less than 10 is denoted as B)”. Also, the “NRAS /KRAS” value in assay [2] is “B (a compound having 3 or more and less than 10 is denoted as B)”.
As to `CCO[C@@H]1C[C@H]2C(=O)NC3(CCCC3)C(=O)N(C)[C@@H](C3CCCC3)C(=O)N(C)[C@H](C(=O)N(C)C)CC(=O)N(C)[C@@H](C)C(=O)N[C@@H]([C@@H](C)CC)C(=O)N(C)CC(=O)N(C)[C@H]3CCCCN(C3=O)[C@@H](Cc3ccc(C(F)(F)F)cc3)C(=O)N(C)CC(=O)N[C@@H](CCc3cc(F)c(C(F)(F)F)c(F)c3)C(=O)N2C1` [PP0586], the pIC50 in assay [1] was 8.28. Further, the “HRAS /KRAS” value on HRAS wild-type protein was “B (a compound having 3 or more and less than 10 is denoted as B)”. Moreover, in assay [2], the “NRAS /KRAS” value is “C (A compound having a KD ratio of 0.1 or more and less than 3 is denoted as C)”.
On to `CCO[C@@H]1C[C@H]2C(=O)NC3(CCC3)C(=O)N(C)[C@@H](C3CCCC3)C(=O)N(C)[C@H](C(=O)N(C)C)CC(=O)N(C)[C@@H](C)C(=O)N[C@@H]([C@@H](C)CC)C(=O)N(C)CC(=O)N(C)[C@H]3CCCCN(C3=O)[C@@H](Cc3ccc(C(F)(F)F)cc3)C(=O)N(C)CC(=O)N[C@@H](CCc3cc(F)c(C(F)(F)F)c(F)c3)C(=O)N2C1` [PP0587], for which the pIC50 in assay [1] was 8.29. The “HRAS /KRAS” value at HRAS wild-type protein was “C (A compound having a KD ratio of 0.1 or more and less than 3 is denoted as C)”. The “NRAS /KRAS” value in assay [2] is “C (A compound having a KD ratio of 0.1 or more and less than 3 is denoted as C)”.
`CC[C@H](C)[C@@H]1NC(=O)[C@H](CC(C)C)N(CC)C(=O)C[C@@H](C(=O)N2CCOCC2)N(C)C(=O)[C@H](C2CCCC2)N(C)C(=O)C2(CCCC2)NC(=O)[C@@H]2CCCN2C(=O)[C@H](CCc2cc(F)c(C(F)(F)F)c(F)c2)NC(=O)CN(C)C(=O)[C@H](Cc2ccc(C(F)(F)F)cc2)N2CCCC[C@@H](C2=O)N(C)C(=O)CN(C)C1=O` [PP0588]: in assay [1], the negative logarithm of the IC50 (pIC50) is 7.78. For the same compound, the “HRAS /KRAS” value at HRAS wild-type protein is “B (a compound having 3 or more and less than 10 is denoted as B)”. For the same compound, the “NRAS /KRAS” value in assay [2] was “B (a compound having 3 or more and less than 10 is denoted as B)”.
For the compound `CC[C@H](C)[C@@H]1NC(=O)[C@H](CC(C)C)N(C)C(=O)C[C@@H](C(=O)N2CCOCC2)N(C)C(=O)[C@H](C2CCCC2)N(C)C(=O)C2(CCCC2)NC(=O)[C@H](C)N(CC)C(=O)[C@H](CCc2cc(F)c(C(F)(F)F)c(F)c2)NC(=O)CN(C)C(=O)[C@H](Cc2ccc(C(F)(F)F)cc2)N2CCCC[C@@H](C2=O)N(C)C(=O)CN(C)C1=O` [PP0589], the pIC50 in assay [1] is 7.61. Also, at HRAS wild-type protein, the “HRAS /KRAS” value is “B (a compound having 3 or more and less than 10 is denoted as B)”. Moreover, the “NRAS /KRAS” value in assay [2] was “B (a compound having 3 or more and less than 10 is denoted as B)”.
On to `CC[C@H](C)[C@@H]1NC(=O)[C@H](CC(C)C)NC(=O)C[C@@H](C(=O)N2CCOCC2)N(C)C(=O)[C@H](C2CCCC2)N(C)C(=O)C2(CCCC2)NC(=O)[C@@H]2CCCN2C(=O)[C@H](CCc2cc(F)c(C(F)(F)F)c(F)c2)NC(=O)CN(C)C(=O)[C@H](Cc2ccc(C(F)(F)F)cc2)N2CCCC[C@@H](C2=O)N(C)C(=O)CN(C)C1=O` [PP0590], for which the pIC50 in assay [1] is 7.68. Besides, the “HRAS /KRAS” value on HRAS wild-type protein was “B (a compound having 3 or more and less than 10 is denoted as B)”. Moreover, the “NRAS /KRAS” value in assay [2] is “C (A compound having a KD ratio of 0.1 or more and less than 3 is denoted as C)”.
Regarding `CC[C@H](C)[C@@H]1NC(=O)[C@H](CC(F)(F)F)N(C)C(=O)C[C@@H](C(=O)N2CCOCC2)N(C)C(=O)[C@H](C2CCCC2)N(C)C(=O)C2(CCCC2)NC(=O)[C@@H]2CCCN2C(=O)[C@H](CCc2cc(F)c(C(F)(F)F)c(F)c2)NC(=O)CN(C)C(=O)[C@H](Cc2ccc(C(F)(F)F)cc2)N2CCCC[C@@H](C2=O)N(C)C(=O)CN(C)C1=O` [PP0594], the pIC50 in assay [1] is 8.60. In addition, the “HRAS /KRAS” value on HRAS wild-type protein is “B (a compound having 3 or more and less than 10 is denoted as B)”. For the same compound, in assay [2], the “NRAS /KRAS” value was “C (A compound having a KD ratio of 0.1 or more and less than 3 is denoted as C)”.
Regarding `CC(C)C[C@H]1C(=O)N[C@@H](C2CCC2)C(=O)N(C)CC(=O)N(C)[C@H]2CCCCN(C2=O)[C@@H](Cc2ccc(C(F)(F)F)cc2)C(=O)N(C)CC(=O)N[C@@H](CCc2cc(F)c(C(F)(F)F)c(F)c2)C(=O)N2CCC[C@H]2C(=O)NC2(CCCC2)C(=O)N(C)[C@@H](C2CCCC2)C(=O)N(C)[C@H](C(=O)N2CCOCC2)CC(=O)N1C` [PP0596], the pIC50 in assay [1] is 8.08. The “HRAS /KRAS” value at HRAS wild-type protein was “B (a compound having 3 or more and less than 10 is denoted as B)”. The “NRAS /KRAS” value in assay [2] was “B (a compound having 3 or more and less than 10 is denoted as B)”.
